Our source for the inhibition of neutrophilia values is US20090318424A1, “NOVEL COMPOUNDS” (priority 2006, published 2009).

The structures appear in SMILES notation. Entries after “also recorded” stand apart in the source; their conditions may differ. Counter-ions that a name gives are not always drawn.

This assay deals with influx of neutrophils to the lung in LPS-challenged rats. The experiment in a line: Rat LPS neutrophilia model. Type of assay: in vivo. Particulars: LPS aerosol 100 ug/ml 15 min, lavage 4 hours later; in at least one of the range of conditions tested. As to the method:
The effect of compounds on the influx of neutrophils to the lung in LPS-challenged rats is evaluated as follows. The test compound is suspended in one of the following solutions: 0.5% tween 80/PBS, 0.5% tween 80/saline, 10% EtOH/saline (with pH adjusted to 2.0, or 8.0 with HCl, or unadjusted), Saline @ pH 2.0, 6.5 or 8.0, 0.5% Tragacanth, 1% DMSO/20% Encapsin/Saline, or acidified 5% Tragacanth. The suspension process may be aided by the use of a glass homogenizer. For intratracheal administration, the animals are anesthetized with inhaled isoflurane and placed in a supine position, the trachea is intubated with a steel gavage needle (1.5 inch, 22 gauge, small ball) or a Penn-Century Microsprayer Aerosolizer (model IA-IB) and 200 ul of dosing solution is delivered. The animals are visually monitored during the recovery process, which typically occurs within two minutes.
Rats treated with compound or vehicle (15 min-24 hours pretreatment) are exposed to an LPS aerosol (100 ug/ml) for 15 min. Four hours later the rats are euthanized with pentobarbital (100 mg/kg, i.p.) and the airways are lavaged with 5 washes of 5 ml of phosphate buffered saline. The harvested cells are stained (Diffquick) and counted to determine total and differential cell data. In a typical study, macrophages represent 40-70% of the total cells, and polymorphonuclear cells 30-60% of the total cells. Inhibition of neutrophil levels relative to no compound controls is calculated based on the differential counts.
The assay has varying conditions, such as concentration, pretreat time, form of the compound (crystalline, amorphous, salts, micronised), and a wet or dry application of the compound. The data is obtained as % inhibition using a particular concentration and pretreat time.
Regarding `Cc1ccc(C(=O)NC(C)C)cc1-c1nc(N2CCC(N3CCN(C)CC3)CC2)nc2c1CNC(=O)N2c1c(F)cccc1F` [Example 72, 3-{8-(2,6-difluorophenyl)-2-[4-(4-methyl-1-piperazinyl)-1-piperidinyl]-7-oxo-5,6,7,8-tetrahydropyrimido[4,5-d]pyrimidin-4-yl}-4-methyl-N-(1-methylethyl)benzamide], the inhibition of neutrophilia result was “statistically significant inhibition”.

In the case of `CN(C)CCNc1nc(-c2cccc(C(=O)Nc3nccs3)c2)c2c(n1)N(c1c(F)cccc1F)C(=O)NC2` [Example 92, 3-(8-(2,6-difluorophenyl)-2-{[2-(dimethylamino)ethyl]amino}-7-oxo-5,6,7,8-tetrahydropyrimido[4,5-d]pyrimidin-4-yl)-N-1,3-thiazol-2-ylbenzamide], the inhibition of neutrophilia entry was “statistically significant inhibition”.

With `Cc1ccc(C(=O)NC(C)C)cc1-c1nc(N2CCCN(C)CC2)nc2c1CNC(=O)N2c1c(F)cccc1F` [Example 179, 3-[8-(2,6-difluorophenyl)-2-(4-methylhexahydro-1H-1,4-diazepin-1-yl)-7-oxo-5,6,7,8-tetrahydropyrimido[4,5-d]pyrimidin-4-yl]-4-methyl-N-(1-methylethyl)benzamide Trifluoroacetate], the inhibition of neutrophilia entry is “statistically nonsignificant inhibition”.

As to `Cc1ccc(C(=O)Nc2ccc(F)c(F)c2)cc1-c1nc(NCCN(C)C)nc2c1CNC(=O)N2c1c(F)cccc1F` [Example 138, N-(3,4-difluorophenyl)-3-(8-(2,6-difluorophenyl)-2-{[2-(dimethylamino)-ethyl]amino}-7-oxo-5,6,7,8-tetrahydropyrimido[4,5-d]pyrimidin-4-yl)-4-methylbenzamide], the inhibition of neutrophilia entry is “statistically significant inhibition”.

For the molecule `Cc1ccc(C(=O)Nc2ccc(F)cc2)cc1-c1nc(NCCCN(C)C)nc2c1CNC(=O)N2c1c(F)cccc1F` [Example 42, 3-(8-(2,6-difluorophenyl)-2-{[3-(dimethylamino)propyl]amino}-7-oxo-5,6,7,8-tetrahydropyrimido[4,5-d]pyrimidin-4-yl)-N-(4-fluorophenyl)-4-methylbenzamide], the inhibition of neutrophilia entry is reported as “statistically significant inhibition”.

Turning to `Cc1ccc(C(=O)Nc2ccccc2)cc1-c1nc(NCCN(C)C)nc2c1CNC(=O)N2c1c(F)cccc1F` [Example 137, 3-(8-(2,6-difluorophenyl)-2-{[2-(dimethylamino)ethyl]amino}-7-oxo-5,6,7,8-tetrahydropyrimido[4,5-d]pyrimidin-4-yl)-4-methyl-N-phenylbenzamide], the inhibition of neutrophilia result was “statistically significant inhibition”.

Regarding `Cc1ccc(C(=O)NC(C)C)cc1-c1nc(N(C)CCN(C)C)nc2c1CNC(=O)N2c1c(F)cccc1F` [Example 36, 3-{8-(2,6-difluorophenyl)-2-[[2-(dimethylamino)ethyl](methyl)amino]-7-oxo-5,6,7,8-tetrahydropyrimido[4,5-d]pyrimidin-4-yl}-4-methyl-N-(1-methylethyl)benzamide], the inhibition of neutrophilia result is given as “statistically significant inhibition”.

In the case of `Cc1ccc(C(=O)Nc2ccc(F)cc2)cc1-c1nc(N(C)CCN(C)C)nc2c1CNC(=O)N2c1c(F)cccc1F` [Example 32, 3-{8-(2,6-difluorophenyl)-2-[[2-(dimethylamino)ethyl](methyl)amino]-7-oxo-5,6,7,8-tetrahydropyrimido[4,5-d]pyrimidin-4-yl}-N-(4-fluorophenyl)-4-methylbenzamide], the inhibition of neutrophilia entry was “statistically nonsignificant inhibition”.

Regarding `Cc1ccc(C(=O)NC(C)C)cc1-c1nc(N2CCC(N3CCCC3)CC2)nc2c1CNC(=O)N2c1c(F)cccc1F` [Example 60, 3-{8-(2,6-difluorophenyl)-7-oxo-2-[4-(1-pyrrolidinyl)-1-piperidinyl]-5,6,7,8-tetrahydropyrimido[4,5-d]pyrimidin-4-yl}-4-methyl-N-(1-methylethyl)benzamide], the inhibition of neutrophilia entry was “statistically nonsignificant inhibition; also recorded: inactive”.

As to `Cc1ccc(C(=O)NC(C)C)cc1-c1nc(N2CCC(N3CCC(C)CC3)CC2)nc2c1CNC(=O)N2c1c(F)cccc1F` [Example 70, 3-[8-(2,6-difluorophenyl)-2-(4-methyl-1,4′-bipiperidin-1′-yl)-7-oxo-5,6,7,8-tetrahydropyrimido[4,5-d]pyrimidin-4-yl]-4-methyl-N-(1-methylethyl)benzamide], the inhibition of neutrophilia entry was “statistically significant inhibition”.

As to `Cc1ccc(C(=O)Nc2nccs2)cc1-c1nc(NCCN(C)C)nc2c1CNC(=O)N2c1c(F)cccc1F` [118(c), 3-(8-(2,6-difluorophenyl)-2-{[2-(dimethylamino)ethyl]amino}-7-oxo-5,6,7,8-tetrahydropyrimido[4,5-d]pyrimidin-4-yl)-4-methyl-N-1,3-thiazol-2-ylbenzamide], the inhibition of neutrophilia entry was “statistically significant inhibition”.

On to `Cc1c(F)cc(C(=O)Nc2ccccc2)cc1-c1nc(NCCN(C)C)nc2c1CNC(=O)N2c1c(F)cccc1F` [Example 112, 3-(8-(2,6-difluorophenyl)-2-{[2-(dimethylamino)ethyl]amino}-7-oxo-5,6,7,8-tetrahydropyrimido[4,5-d]pyrimidin-4-yl)-5-fluoro-4-methyl-N-phenylbenzamide], for which the inhibition of neutrophilia entry is given as “statistically significant inhibition”.

Regarding `CSc1ccc(NC(=O)c2ccc(C)c(-c3nc(NCCN(C)C)nc4c3CNC(=O)N4c3c(F)cccc3F)c2)cc1` [Example 127, 3-(8-(2,6-difluorophenyl)-2-{[2-(dimethylamino)ethyl]amino}-7-oxo-5,6,7,8-tetrahydropyrimido[4,5-d]pyrimidin-4-yl)-4-methyl-N-[4-(methylthio)phenyl]benzamide], the inhibition of neutrophilia entry is “statistically significant inhibition”.

With `CCN(CC)CCCNc1nc(-c2cc(C(=O)Nc3ccc(F)cc3)ccc2C)c2c(n1)N(c1c(F)cccc1F)C(=O)NC2` [Example 43, 3-[2-{[3-(diethylamino)propyl]amino}-8-(2,6-difluorophenyl)-7-oxo-5,6,7,8-tetrahydropyrimido[4,5-d]pyrimidin-4-yl]-N-(4-fluorophenyl)-4-methylbenzamide], the inhibition of neutrophilia result is “inactive”.

For the molecule `CN(C)CCNc1nc(-c2cccc(C(=O)Nc3ccc(F)cc3)c2)c2c(n1)N(c1c(F)cccc1F)C(=O)NC2` [Example 93, 3-(8-(2,6-difluorophenyl)-2-{[2-(dimethylamino)ethyl]amino}-7-oxo-5,6,7,8-tetrahydropyrimido[4,5-d]pyrimidin-4-yl)-N-(4-fluorophenyl)benzamide], the inhibition of neutrophilia result is reported as “statistically nonsignificant inhibition”.

As to `CCCNC(=O)c1ccc(C)c(-c2nc(N(C)CCCN(C)C)nc3c2CNC(=O)N3c2c(F)cccc2F)c1` [Example 53, 3-{8-(2,6-difluorophenyl)-2-[[3-(dimethylamino)propyl](methyl)amino]-7-oxo-5,6,7,8-tetrahydropyrimido[4,5-d]pyrimidin-4-yl}-4-methyl-N-propylbenzamide], the inhibition of neutrophilia entry was “statistically nonsignificant inhibition”.

`Cc1ccc(C(=O)Nc2nccs2)cc1-c1nc(NCCCN(C)C)nc2c1CNC(=O)N2c1c(F)cccc1F` [Example 119, 3-(8-(2,6-difluorophenyl)-2-{[3-(dimethylamino)propyl]amino}-7-oxo-5,6,7,8-tetrahydropyrimido[4,5-d]pyrimidin-4-yl)-4-methyl-N-1,3-thiazol-2-ylbenzamide]: the inhibition of neutrophilia result is on record as “statistically significant inhibition”.

In the case of `CCCNC(=O)c1ccc(C)c(-c2nc(NCCCN(CC)CC)nc3c2CNC(=O)N3c2c(F)cccc2F)c1` [29(c), 3-[2-{[3-(diethylamino)propyl]amino}-8-(2,6-difluorophenyl)-7-oxo-5,6,7,8-tetrahydropyrimido[4,5-d]pyrimidin-4-yl]-4-methyl-N-propylbenzamide], the inhibition of neutrophilia result is listed as “statistically significant inhibition”.

With `Cc1ccc(C(=O)Nc2ccc(F)cc2)cc1-c1nc(NC2CCN(C)CC2)nc2c1CNC(=O)N2c1c(F)cccc1F` [Example 39, 3-{8-(2,6-difluorophenyl)-2-[(1-methyl-4-piperidinyl)amino]-7-oxo-5,6,7,8-tetrahydropyrimido[4,5-d]pyrimidin-4-yl}-N-(4-fluorophenyl)-4-methylbenzamide], the inhibition of neutrophilia entry was “statistically nonsignificant inhibition”.

For the molecule `CCN(CC)CCCNc1nc(-c2cc(C(=O)Nc3nccs3)ccc2C)c2c(n1)N(c1c(F)cccc1F)C(=O)NC2` [Example 120, 3-[2-{[3-(diethylamino)propyl]amino}-8-(2,6-difluorophenyl)-7-oxo-5,6,7,8-tetrahydropyrimido[4,5-d]pyrimidin-4-yl]-4-methyl-N-1,3-thiazol-2-ylbenzamide], the inhibition of neutrophilia entry was “statistically significant inhibition”.
